Test results from the NIST ThermoML archive (doi:10.1021/je301353z).

Experiment: xn = mol fraction of the nth substance listed
Details: 101 kPa, Liquid; for speed of sound: Sing-around technique in a fixed-path interferometer; for mass density: Vibrating tube method

O=C1CCCN1 [2-pyrrolidinone] + c1ccncc1
Details	mass density, 303.15 K [kg/m3]	mass density, 308.15 K [kg/m3]	speed of sound, 303.15 K [m/s]	speed of sound, 308.15 K [m/s]
x1 = 0.1333	992.29	987.38	1426.5	1406.5
x1 = 0.1801	998.88	994.01	1436.7	1416.9
x1 = 0.2312	1006.02	1001.17	1447.9	1428.3
x1 = 0.2713	1011.55	1006.71	1456.6	1437.4
x1 = 0.3312	1019.7	1014.93	1469.8	1450.9
x1 = 0.3717	1025.16	1020.41	1478.8	1460
x1 = 0.4312	1033.04	1028.34	1491.9	1473.6
x1 = 0.4752	1038.77	1034.15	1501.8	1483.5
x1 = 0.5316	1046.02	1041.5	1514.4	1496.3
x1 = 0.5717	1051.12	1046.65	1523.2	1505.6
x1 = 0.6219	1057.4	1053.03	1534.4	1517
x1 = 0.6772	1064.23	1059.98	1546.7	1529.5
x1 = 0.7314	1070.86	1066.7	1558.8	1541.7
x1 = 0.7714	1075.69	1071.59	1567.6	1550.7
x1 = 0.8312	1082.86	1078.85	1580.7	1564.3
x1 = 0.8712	1087.64	1083.64	1589.3	1573.2
x1 = 0.9013	1091.23	1087.24	1596	1580
x1 = 0.9311	1094.78	1090.78	1602.4	1586.6
